Values quoted from earlier work as cited in article PMC7395068, “The evolution of strategies to minimise the risk of human drug-induced liver injury (DILI) in drug discovery and development” (Archives of Toxicology, 2020).
Read-outs that look alike come from different tables or passages of the source.

How the values were obtained:
[1] = cited from earlier work
[2] = test system: THLE or HepG2 cells, isolated mitochondria, BSEP; details: cited from earlier work
[3] = cited from earlier work; remark: listed apart in the source
HepG2 cells [4] = details: cited from earlier work
human hepatocytes = details: cited from earlier work
HepG2 cells [5] = details: cited from earlier work; remark: listed apart in the source
[6] = test system: isolated mouse liver mitochondria; details: cited from earlier work
[7] = In vitro Assay, ref Persson 2013
[8] = In vitro Assay, ref O'Brien 2006
[9] = In vitro Assay, ref Porceddu 2012

O=C(O)CCCCCCNC1c2ccccc2CCc2ccccc21 [amineptine]
In vivo DILI ([1]; in vivo): +VE | Partition Hybrid HRM Score [2]: +VE | Ro2 Hybrid HRM Score [2]: -VE | DILI +VE (5-8), DILI -VE (-4) ([3]; in vivo): +VE | DILI severity category ([3]; in vivo): vMost-DILI-Concern | Cluser analysis (HepG2 cells [4]): -VE | Structural based (HCI) (HepG2 cells [4]): -VE

Nc1ccc(C(=O)O)c(O)c1 [aminosalicylic acid]
In vivo DILI ([1]; in vivo): +VE | Cluser analysis (HepG2 cells [4]; [7]): -VE | Structural based (HCI) (HepG2 cells [4]; [7]): -VE | Structural based (HCI) (human hepatocytes): +VE

Nc1ccc(C(=O)O)c(O)c1 [aminosalycilate]
Structural based (HCI) (HepG2 cells [5]): +VE (key: +VE: lowest HCI endpoint IC50 (or in the absence of dose–response < 100 µM) < 30 × total human plasma exposure levels (Cmax.tot))

CCN1CCCC1CNC(=O)c1cc(S(=O)(=O)CC)c(N)cc1OC (centres unmarked) [amisulpride]
In vivo DILI ([1]; ref Persson 2013): -VE | Cluser analysis (HepG2 cells [4]; [7]): -VE | Structural based (HCI) (HepG2 cells [4]; [7]): -VE

O=C(O)CCCC[C@@H]1SC[C@@H]2NC(=O)N[C@@H]21 [biotin]
In vivo DILI ([1]; in vivo): -VE | in vitro data EC20<=2uM [6]: -VE | Cluser analysis (HepG2 cells [4]): -VE | Structural based (HCI) (HepG2 cells [4]): -VE | Structural based (HCI) (human hepatocytes): -VE

COCc1c(C(C)C)nc(C(C)C)c(/C=C/[C@@H](O)C[C@@H](O)CC(=O)O)c1-c1ccc(F)cc1 [cerivastatin]
In vivo DILI ([1]; ref O'Brien 2006): +VE | Structural based (HCI) (HepG2 cells [5]): +VE (key: +VE: lowest HCI endpoint IC50 (or in the absence of dose–response < 100 µM) < 30 × total human plasma exposure levels (Cmax.tot))

Oc1c(I)cc(Cl)c2cccnc12 [clioquinol]
In vivo DILI ([1]; ref O'Brien 2006): -VE | Structural based (HCI) (HepG2 cells [5]; [8]): +VE (lowest HCI endpoint IC50 (or in the absence of dose–response < 100 µM) < 30 × total human plasma exposure levels (Cmax.tot))

Clc1ccccc1C(c1ccccc1)(c1ccccc1)n1ccnc1 [clotrimazole]
In vivo DILI ([1]; […]): -VE | In vivo DILI ([1]; ref Aleo 2019): +VE | In vivo DILI ([1]; ref Porceddu 2012): +VE | In vivo DILI ([1]; ref Xu 2008): -VE | Partition Hybrid HRM Score ([2]; In vitro Assay, ref Aleo 2019): +VE | Ro2 Hybrid HRM Score ([2]; In vitro Assay, ref Aleo 2019): +VE | DILI +VE (5-8), DILI -VE (-4) ([3]; ref Chen 2016): +VE | DILI severity category ([3]; ref Chen 2016): vLess-DILI-Concern | in vitro data EC2<=1x Cmax [6, 9]: +VE | in vitro data EC20<=2uM [6, 9]: +VE | Structural based (HCI) (human hepatocytes; In vitro Assay, ref Xu 2008): -VE

COc1cccc2c1C(=O)c1c(O)c3c(c(O)c1C2=O)C[C@@](O)(C(C)=O)C[C@@H]3O[C@H]1C[C@H](N)[C@H](O)[C@H](C)O1 [daunorubicin]
In vivo DILI ([1]; ref Porceddu 2012): +VE | DILI +VE (5-8), DILI -VE (-4) ([3]; ref Chen 2016): -VE | DILI severity category ([3]; ref Chen 2016): vNo-DILI-Concern | in vitro data EC2<=1x Cmax [6, 9]: +VE | in vitro data EC20<=2uM [6, 9]: +VE

CC1=NS(=O)(=O)c2cc(Cl)ccc2N1 [diazoxide]
In vivo DILI ([1]; ref Porceddu 2012): -VE | DILI +VE (5-8), DILI -VE (-4) ([3]; ref Chen 2016): -VE | DILI severity category ([3]; ref Chen 2016): Ambiguous DILI-concern | in vitro data EC2<=1x Cmax [6, 9]: +VE | in vitro data EC20<=2uM [6, 9]: -VE

O=C(O)c1cc(-c2ccc(F)cc2F)ccc1O [diflunisal]
In vivo DILI ([1]; ref Porceddu 2012): +VE | In vivo DILI ([1]; ref Xu 2008): +VE | DILI +VE (5-8), DILI -VE (-4) ([3]; ref Chen 2016): +VE | DILI severity category ([3]; ref Chen 2016): vMost-DILI-Concern | in vitro data EC2<=1x Cmax [6, 9]: +VE | in vitro data EC20<=2uM [6, 9]: +VE | Structural based (HCI) (human hepatocytes; In vitro Assay, ref Xu 2008): +VE

C#Cc1cccc(Nc2ncnc3cc(OCCOC)c(OCCOC)cc23)c1 [erlotinib]
In vivo DILI ([1]; ref Porceddu 2012): +VE | DILI +VE (5-8), DILI -VE (-4) ([3]; ref Chen 2016): +VE | DILI severity category ([3]; ref Chen 2016): vMost-DILI-Concern | in vitro data EC2<=1x Cmax [6, 9]: +VE | in vitro data EC20<=2uM [6, 9]: +VE

CC[C@]1(O)CC[C@H]2[C@@H]3CCC4=CCCC[C@@H]4[C@H]3CC[C@@]21C [ethylestrenol]
In vivo DILI ([1]; ref O'Brien 2006): +VE | Structural based (HCI) (HepG2 cells [5]; [8]): +VE (lowest HCI endpoint IC50 (or in the absence of dose–response < 100 µM) < 30 × total human plasma exposure levels (Cmax.tot))

CCNC(C)Cc1cccc(C(F)(F)F)c1 (centres unmarked) [fenfluramine]
In vivo DILI ([1]; ref O'Brien 2006): -VE | Structural based (HCI) (HepG2 cells [5]; [8]): -VE

CC(C)(C(=O)O)c1ccc(C(O)CCCN2CCC(C(O)(c3ccccc3)c3ccccc3)CC2)cc1 (centres unmarked) [fexofenadine]
Cluser analysis (HepG2 cells [4]): -VE

Nc1nc2ncc(CNc3ccc(C(=O)N[C@@H](CCC(=O)O)C(=O)O)cc3)nc2c(=O)[nH]1 [folic acid]
Partition Hybrid HRM Score ([2]; In vitro Assay, ref Aleo 2019): -VE | Ro2 Hybrid HRM Score ([2]; In vitro Assay, ref Aleo 2019): -VE | in vitro data EC2<=1x Cmax [6, 9]: +VE

Nc1nc(=O)c2c([nH]1)NC[C@@H](CNc1ccc(C(=O)N[C@@H](CCC(=O)O)C(=O)O)cc1)N2C=O [folinic acid]
In vivo DILI ([1]; ref Persson 2013): -VE | Cluser analysis (HepG2 cells [4]; [7]): -VE | Structural based (HCI) (HepG2 cells [4]; [7]): -VE
